Assays:
Assay type in all cases: in vivo, rat
[1] = test system: carrageenan induced paw oedema; test: Inhibition of carrageenan induced oedema in rats; conditions: for ED30: p.o.
Protocol: The treated paw was immersed up to the tibio-tarsal articulation into the chamber and the volume of displaced liquid was determined as the degree of the inflammation. Degree of inflammation (ml)=volume after the CARR treatment (ml)−volume before the CARR treatment (ml)
The degree of the anti-inflammatory effect of the treated group (which obtained test agent) was compared to that of the control group (which obtained only vehicle). The test compound and the vehicle were given orally by blunt-ended needle cannula one hour before the CARR treatment. The volume of the treated paw was measured at 3 and 5 hours after the CARR treatment and the change in the degree of inflammation in % was calculated according to the following formula: Anti-inflammatory activity %=100×[control group (ml)−treated group (ml)/control group (ml)]
[…] Anti-inflammatory activity of the compounds was determined in % at 4 and 6 hours after p.o. treatment and ED30 was calculated.

[2] = test system: carrageenan induced chronic hyperalgesia; test: Carrageenan induced chronic hyperalgesia model in rats (Randall-Selitto)
[3] = test system: carrageenan induced chronic hyperalgesia; test: as above; conditions: for Analgesic effect (reversal %) after p.o. treatment: chronic model, 30 mg/kg p.o.
Protocol: (§1) Oedema (inflammation) was induced by subcutaneous injection of carrageenan (CARR) suspension in the subplantar region of the right hind paw of male Wistar rats, weighted 140-190 g (n=8-12 animal/group). The nociceptive thresholds of the inflamed hind paw after painful mechanical stimuli were measured with analgesimeter (Ugo Basile, type: 37215, Italy). The apparatus is suitable for the measuring of the extent and the latency of the pain reaction threshold of the sensitized paw after painful stimuli. The analgesics elevate the low pain reaction threshold of inflamed paw and the degree of its antinociceptive effect is expressed in reversal %.
(§2) An increasing pressure was applied to the paw and the withdrawal threshold was determined as the first sign (squeaking and/or struggling) of pain response. The pressure threshold was shown in grams. The average value of the hind paw withdrawal obtained with untreated right paw was regarded as the basal hind paw withdrawal (average 80-110 grams.) After determining the baseline threshold the animals received carrageenan injection that produced an intense inflammation associated with hyperalgesia. The mechanical threshold was determined at various times to establish the magnitude and duration of the hyperalgesia. The maximum reduction in threshold was measured 2-3 h after injection (the pain threshold of the inflamed paw is 20-30 g, which was decreased by 65-80% in comparing to the basic value).
(§3) Acute hvneralgesia model: the animals were treated with the test compounds and celecoxib (10 and 30 mg/kg p.o.) one hour after CARR treatment (100 μl 2% suspension). Pain threshold was measured at 2 and 4 hours after the treatment. Chronic hyperalgesia model: extended inflammation and decreased pain threshold were induced with higher dose of CARR. Pain threshold of inflamed paw was measured 24 hours after CARR treatment (150 μl, 2% suspension) then test compound and Celecoxib (30 mg/kg p.o.) were given to the animals. Pain threshold of treated paw was measured from 30 minutes till 3 hours after treatment.
(§4) Control groups in both models after CARR treatment were treated with vehicle p.o. at the same intervals as the test compounds. In both models the analgesic effect of the compounds was expressed in the reversal (%) of the decrease of the pain threshold. Reversal %=[mean of treated groupTxh(g)−treated groupT0h(g)]/[basic mean of treated groupT-1h(g)−treated groupT0h(g)] • T−1 h=mean of the pain threshold of paw before CARR treatment in acute model (g) • T0h=mean of the pain threshold before treatment 1 hour after CARR treatment in acute model (g) • T×h=pain threshold after CARR treatment in the measuring times (1 h, 2 h, 3 h) in acute model (g)

[4] = test system: myocardial ischemia-reperfusion induced injury; test: Myocardial ischemia-reperfusion induced injury in rats (cardioprotective effect); conditions: 30 mg/kg i.p. 30 minutes before occlusion; control group 90%
Protocol: Effect of compound of Example 5 and celecoxib was determined in experimental myocardial ischemia-reperfusion induced injury.
Myocardial infarction was produced in male, SPRD CFY rats of 300-360 g by surgical occlusion of left anterior descending coronary artery. Briefly, the animals were anesthetized with pentobarbital (60 mg/kg i.p.) and the chest was opened, the left coronary artery was ligated for 6 minutes followed by reperfusion. Test compounds were administered i.p. in 30 and 60 mg/kg dose 30 minutes before occlusion of the coronary artery. The control group was treated with vehicle (5% TWEEN 80 in isotonic NaCl, […]).

[5] = test system: carrageenan induced acute hyperalgesia; test: Carrageenan induced acute hyperalgesia in rats (Randall-Selitto model)
Protocol: as §1, §2, §3, §4

[6] = test system: alcohol induced mucosa injury; test: Gastric lesions induced by acidified alcohol in rats; conditions: 40 minutes before ethanol+HCl, n = 10
Protocol: Male Wistar rats weighing 140-160 g were treated p.o. with a 1:0.02 mixture of dry ethanol and concentrated HCl (0.5 ml) in order to induce gastric lesions. One hour later the animals were euthanized with ether and the stomach excised along its greater curvature, the mucosa was examined for the presence of lesions.
Severity of lesions: • 1: petechiae or erosion with length of 1 mm • 2: erosion with length between 2 and 3 mm • 3: erosion with length between 3 and 4 mm • 4: erosion with length between 4 and 5 mm
If the lesion was longer than 5 mm, it was scored 4 point as many times as the total length of the lesion divisible by four and the rest of the length was evaluated according to the above scale. The degree of injury of mucosa was characterized by ulcer index. Ulcer index (severity of lesion×number of lesion) was calculated for every animal and the degree of injury of mucosa in the groups of tested animals was characterized by the mean of ulcer index of different groups of animals.
Test compounds were given p.o. 40 minutes before the ethanol+HCl treatment

[7] = test system: acetic acid induced chronic gastric ulcer; test: Acetic acid induced chronic gastric ulcer in rats
Protocol: In our experiments the method […] of Okabe et al was used. Male Wistar rats of 150-170 g were narcotize part of the stomach.
The test compound was given p.o. on the fifth day after the operation for seven days. The animals were euthanized with ether after 24 hours of the last dose and the abdomen was macroscopically examined (exravasation, accretion), the stomach was excised and the diameters of ulcers were measured.

[8] = inflammation induced chronic hyperalgesia model

## Cc1ccc(-c2cc(C(F)(F)F)nn2-c2ccc(S(=O)(=O)NOC(C)C(=O)O)cc2)cc1 (racemic) [Example 5, (R,S)-2-[4-(5-p-methylphenyl-3-trifluoromethyl-pyrazol-1-yl)-benzensulfonylamino-oxy]-propionic acid]
[1]; 3 mg/kg p.o., 4 hours after treatment
  Inhibiton of carrageenan induced edema %: 21 ± 3%
[1]; 3 mg/kg p.o., 6 hours after treatment
  Inhibiton of carrageenan induced edema %: 20 ± 3%
[1]; 10 mg/kg p.o., 4 hours after treatment
  Inhibiton of carrageenan induced edema %: 40 ± 4%
[1]; 10 mg/kg p.o., 6 hours after treatment
  Inhibiton of carrageenan induced edema %: 34 ± 5%
[1]; 30 mg/kg p.o., 4 hours after treatment
  Inhibiton of carrageenan induced edema %: 49 ± 5%
[1]; 30 mg/kg p.o., 6 hours after treatment
  Inhibiton of carrageenan induced edema %: 40 ± 4%
[1]; CARR induced oedema test
  anti-inflammatory activity compared with celecoxib: significantly (p<0.05) higher
[1]; 4 hours after treatment
  ED30: 5.7 mg/kg
[1]; 6 hours after treatment
  ED30: 8.4 mg/kg
[2]; 10 mg/kg p.o., 30 min
  Analgesic effect (reversal %) after p.o. treatment: 23%
[2]; 10 mg/kg p.o., 1 hour
  Analgesic effect (reversal %) after p.o. treatment: 22%
[2]; 10 mg/kg p.o., 2 hour
  Analgesic effect (reversal %) after p.o. treatment: 28%
[2]; 10 mg/kg p.o., 3 hour
  Analgesic effect (reversal %) after p.o. treatment: 14%
[2]; 10 mg/kg p.o., 4 hour
  Analgesic effect (reversal %) after p.o. treatment: 11%
[2]; 30 mg/kg p.o., 4 hour
  Analgesic effect (reversal %) after p.o. treatment: 19%
[3]; 30 min
  Analgesic effect (reversal %) after p.o. treatment: 42%
[3]; 1 hour
  Analgesic effect (reversal %) after p.o. treatment: 54%
[3]; 2 hour
  Analgesic effect (reversal %) after p.o. treatment: 34%
[3]; 3 hour
  Analgesic effect (reversal %) after p.o. treatment: 19%
[3]; [8]
  analgesic effect: significant analgesic effect (p<0.01)
  duration of action compared with the reference compound: several hours longer
[4]
  occurrence of serious, not mortal ventricular fibrillation during reperfusion: 60%
[5]; 10 mg/kg p.o., 1 hour
  Analgesic effect (reversal %) after p.o. treatment: 24%
[5]; 10 mg/kg p.o., 2 hour
  Analgesic effect (reversal %) after p.o. treatment: 30%
[5]; 10 mg/kg p.o., 3 hour
  Analgesic effect (reversal %) after p.o. treatment: 15%
[5]; 30 mg/kg p.o., 1 hour
  Analgesic effect (reversal %) after p.o. treatment: 89%
[5]; 30 mg/kg p.o., 2 hour
  Analgesic effect (reversal %) after p.o. treatment: 59%
[5]; 30 mg/kg p.o., 3 hour
  Analgesic effect (reversal %) after p.o. treatment: 35%
[6]; 15 mg/kg p.o.
  Ulcer index: 43.0 ± 4.4
[6]; 30 mg/kg p.o.
  Ulcer index: 35.0 ± 4.4
[6]; 60 mg/kg p.o.
  Ulcer index: 15.8 ± 2.8
[7]; 30 mg/kg p.o. for seven days
  Area of ulcer (mm^2): 2.4 ± 0.7 mm^2
  Change of bodyweight (g) + (increase) − (decrease): +43 ± 5 g
[7]; p.o. for seven days
  Recovery of acetic acid induced ulcer: did not influence it
